Literature values as cited in patent US9579328B2, “Prostaglandin and vasoconstrictor pharmaceutical compositions and methods of use” (ALLERGAN, INC., priority 2012, dated 2017).
Read-outs that look alike come from different tables or passages of the source.

How the values were obtained:
[1] = system: patients with glaucoma or ocular hypertension; details: cited from earlier work
[2] = system: conjunctiva of patients with primary open-angle glaucoma; details: cited from earlier work
[3] = system: lower palpebral conjunctiva of rabbits, dogs, and non-human primates; details: cited from earlier work
[4] = system: human cultured conjunctiva-derived epithelial cells; details: cited from earlier work
[5] = system: palpebral conjunctiva of Beagle dogs; details: n = 6 per group, left eye, cited from earlier work
[6] = system: palpebral conjunctiva of Dutch-Belted (pigmented) rabbits; set-up: key: N = Tissues within normal histological limits; details: left eye, n = 20, cited from earlier work
[7] = system: rabbit isolated jugular veins; details: cited from earlier work
[8] = non-human primate, after single or multiple topical bimatoprost dosing; cited from earlier work
[9] = bimatoprost 0.001% q.i.d. topical ocular for one month
[10] = bimatoprost 0.01% q.i.d. topical ocular for one month
[11] = bimatoprost 0.1% q.i.d. topical ocular for one month
[12] = Bimatoprost 0.03% b.i.d. 6 months
[13] = Bimatoprost 0.03% q.d. 6 months
[14] = Bimatoprost 0.1% b.i.d. 6 months

For `CCNC(=O)CCC/C=C\C[C@@H]1[C@@H](/C=C/[C@@H](O)CCc2ccccc2)[C@H](O)C[C@@H]1O` [Bimatoprost, bimatoprost], which “mean laser-flare photometry readings and mean changes from baseline” value ([1]; 1 year, bimatoprost 0.03% once or twice daily, timolol maleate 0.5% twice daily, subset of 310 patients) is on record?
Its value is “no significant differences among the treatment groups”.

What about the safety and tolerability ([1]; study extension to 2 years) of the same compound?
Its safety and tolerability is “safe and well-tolerated”.

What about the “eyes with signs of inflammatory cell margination or infiltration” value ([2]; bimatoprost 0.03% q.d. 2 to 4 weeks, eyes with hyperemia (2/9)) of the same compound?
Its value is 22%.

What about the “eyes with vascular congestion” value ([2]; bimatoprost 0.03% q.d. 2 to 4 weeks, eyes with hyperemia (7/9)) of the same compound?
The value was 78%.

What about the “eyes that developed conjunctival hyperemia” value ([2]; bimatoprost 0.03% q.d. for 2 to 4 weeks) of the same compound?
Its value is “Nine of 13”.

What about the “Incidence of inflammatory infiltrates above background, lower palpebral conjunctiva: number of animals with histopathologic findings (per total number of animals)” value ([3]; Dogs, Beagle, 1 month, 0.1% q.i.d. topical) of the same compound?
The value was 0 (6).

What about the “Incidence of inflammatory infiltrates above background, lower palpebral conjunctiva: number of animals with histopathologic findings (per total number of animals)” value ([3]; Monkeys, Cynomolgus, 12 months, 0.1% b.i.d. topical) of the same compound?
The value was 0 (60).

And the “Incidence of inflammatory infiltrates above background, lower palpebral conjunctiva: number of animals with histopathologic findings (per total number of animals)” value ([3]; Rabbits, Dutch-Belted, 1 month, 0.03% b.i.d. topical)?
Its value is 0 (19).

And the “Incidence of inflammatory infiltrates above background, lower palpebral conjunctiva: number of animals with histopathologic findings (per total number of animals)” value ([3]; Rabbits, Dutch-Belted, 6 months, 0.1% b.i.d. topical)?
The value was 1 (20).

And the “Incidence of inflammatory infiltrates above background, lower palpebral conjunctiva: number of animals with histopathologic findings (per total number of animals)” value ([3]; Rabbits, New Zealand White, 1 month, 0.1% q.i.d. topical)?
Its value is 0 (16).

What about the “compound-related findings in eyes of the animal species” value ([3]; multiple subclinical, clinical, and exaggerated doses) of the same compound?
The value was “No compound-related findings of corneal toxicity, discomfort or irritation, or histopathological changes”.

What about the “in-life evaluations: treatment-related ocular surface inflammation” value ([3]; periods of up to one year exposure) of the same compound?
The value was “no treatment-related ocular surface inflammation”.

What about the “direct stimulation of inflammatory pathways involving adhesion molecules or class II antigens” value ([4]; in vitro) of the same compound?
Its value is “None of the drugs appeared to induce direct stimulation of inflammatory pathways”.

What about the toxicity observed ([4]; primarily related to the concentration of benzalkonium chloride) of the same compound?
The toxicity observed was “mild”.

What about the “Incidence of minimal-to-mild mononuclear cell infiltration in palpebral conjunctiva (number of animals with histopathologic findings), Lower Eyelid” value [5, 9] of the same compound?
The value was 3.

What about the “Incidence of minimal-to-mild mononuclear cell infiltration in palpebral conjunctiva (number of animals with histopathologic findings), Upper Eyelid” value [5, 9] of the same compound?
The value was 4.

What about the “Incidence of minimal-to-mild mononuclear cell infiltration in palpebral conjunctiva (number of animals with histopathologic findings), Lower Eyelid” value [5, 10] of the same compound?
The value was 5.

And the “Incidence of minimal-to-mild mononuclear cell infiltration in palpebral conjunctiva (number of animals with histopathologic findings), Upper Eyelid” value [5, 10]?
Its value is 3.

What about the “Incidence of minimal-to-mild mononuclear cell infiltration in palpebral conjunctiva (number of animals with histopathologic findings), Lower Eyelid” value [5, 11] of the same compound?
Its value is 6.

What about the “Incidence of minimal-to-mild mononuclear cell infiltration in palpebral conjunctiva (number of animals with histopathologic findings), Upper Eyelid” value [5, 11] of the same compound?
Its value is 5.

What about the “Mononuclear cell infiltration in palpebral conjunctiva, Lower Eyelid” value [6, 12] of the same compound?
The value was “N”.

And the “Mononuclear cell infiltration in palpebral conjunctiva, Upper Eyelid” value [6, 12]?
The value was “N”.

What about the “Mononuclear cell infiltration in palpebral conjunctiva, Lower Eyelid” value [6, 13] of the same compound?
The value was “N”.

And the “Mononuclear cell infiltration in palpebral conjunctiva, Upper Eyelid” value [6, 13]?
Its value is “N”.

And the “Mononuclear cell infiltration in palpebral conjunctiva, Lower Eyelid” value [6, 14]?
The value was “N”.

And the “Mononuclear cell infiltration in palpebral conjunctiva, Upper Eyelid” value [6, 14]?
The value was “N”.

What about the “response in the endothelium-denuded preparation” value ([7]; endothelium-denuded, histamine precontracted, bimatoprost) of the same compound?
Its value is “inactive”.

And the EC50 ([7]; endothelium-intact jugular veins, 3 μM histamine precontracted, read-out: vasorelaxant response EC50)?
The EC50 was 3.98 µM.

What about the “concentrations found in ocular surface tissues” value [8] of the same compound?
The value was 10^−6-10^−5 molar equivalent.
